Series [1] deals with SIINFEKL-H2Kb complex. Kind of series: Presentation of […]-H2Kb complex on HepB5 cells. Type of series: cell-based, mouse. Conditions: for SIINFEKL-H2Kb presentation compared with controls: IFNγ-pretreated HepB5 cells, 1 hr.
The subject of series [2] is proteasome. Kind of series: Hydrolysis of […]-TE by cytosolic fractions of HepB5 cells. It is filed as biochemical, mouse.
The subject of series [3] is proteasome. Briefly: Proteasome chymotrypsin-like. It is filed as cell-based, mouse. Conditions: HepB5 cells, 48 hr.
Another series has as its system H2Kb. Kind of series: H2Kb expression on HepB5 cells. Type of series: cell-based, mouse. Conditions: HepB5 cells after 24-hr IFNγ exposure; flow cytometric analysis. Background: A flow cytometer gives signals particle by particle.
Series [4] has as its system STAT1. The settings on record: HepB5 cells, ethanol treatment then IFNγ; data not shown.
Series [5] deals with proteasome. Briefly: Proteasome activity in primary hepatocytes.
The subject of a further series is LMP2. Conditions: HepB5 cells, IFNγ 10 ng/ml and ethanol 50 mM, 48 hr; normalized to β-actin.
The target in a further series is ADH (Mus musculus, UniProt P00329). Conditions: HepB5 cells exposed to ethanol for 48 hr; total cell lysates.
Chain of ADH (P00329 whole entry): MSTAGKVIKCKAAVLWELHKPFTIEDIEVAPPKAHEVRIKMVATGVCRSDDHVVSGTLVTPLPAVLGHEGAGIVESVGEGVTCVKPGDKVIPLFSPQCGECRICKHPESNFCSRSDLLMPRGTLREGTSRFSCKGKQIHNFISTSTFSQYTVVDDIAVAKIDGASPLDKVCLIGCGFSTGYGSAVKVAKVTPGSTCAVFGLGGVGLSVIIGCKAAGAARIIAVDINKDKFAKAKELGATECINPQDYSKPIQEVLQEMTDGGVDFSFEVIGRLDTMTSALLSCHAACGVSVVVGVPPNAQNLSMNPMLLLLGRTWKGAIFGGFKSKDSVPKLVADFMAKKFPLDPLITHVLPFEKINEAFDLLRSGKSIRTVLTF
The subject of series [6] is SIINFEKL-H2Kb complex. Kind of series: Presentation of SIINFEKL-H2Kb complex on primary hepatocytes.
The subject of another series is PA28. The settings on record: HepB5 cells, IFNγ 10 ng/ml and ethanol 50 mM, 48 hr; normalized to β-actin.
Series [7] concerns STAT1. The settings on record: HepB5 cells, ethanol 48 hr then IFNγ 1 hr; nuclear extracts; 3 experiments.
The next series concerns HepB5 cells. Kind of series: Acetaldehyde level in medium by head space gas chromatography. Type of series: cell-based, mouse. The settings on record: HepB5 cells incubated with ethanol and DAS, 20 μM; culture medium.
Where [8] appears, read: 50 mM ethanol 18 hr, without IFNγ.

Where a SMILES comes first, the peptide text is derived from it. The star is where a group is joined. Cbz = O=C(OCc1ccccc1)*

Regarding `COC1=C2C[C@@H](C)C[C@H](OC)[C@H](O)[C@@H](C)/C=C(\C)[C@H](OC(N)=O)[C@@H](OC)/C=C\C=C(/C)C(=O)NC(=CC1=O)C2=O` [geldanamycin], the “SIINFEKL-H2Kb presentation compared with controls” value with SIINFEKL-H2Kb complex [1] (geldanamycin 5 μM) is “suppressed”.

Consider `CC(C)C[C@@H](C=O)NC(=O)[C@H](CC(C)C)NC(=O)[C@H](CC(C)C)NC(=O)OCc1ccccc1` [MG132] (Cbz-Leu-Leu-Leu-aldehyde), for which the SIINFEKL-TE hydrolysis result in the series on proteasome [2] (cytosols of HepB5 cells with MG132) is “completely blocked”. Further, the “SIINFEKL-H2Kb presentation compared with controls” value in the series with SIINFEKL-H2Kb complex [1] (MG132 20 μM) is “suppressed”.

As to “IFNγ: recombinant interferon gamma, used at 10 ng/ml”, in the series on proteasome [3] (IFNγ 10 ng/ml), the “Effect on proteasome activity” value is reported as “induced proteasome activity”. The H2Kb positive cells entry in the series on H2Kb is reported as “about 90%”.

Turning to `CCO` [ethanol], in the series with STAT1 [4], the STAT1 phosphorylation entry is listed as “no changes”. Moreover, the Proteasome activity result in the series on proteasome [5] (setting [8]) is “decreased”. Further, in the series on proteasome [5] (IFNγ 10 ng/ml, 50 mM ethanol), the “Proteasome function in IFNγ-pretreated hepatocytes” value is given as “down-regulated”. For the same molecule, the “Induction of immunoproteasome subunit LMP2 by IFNγ” value with LMP2 is “prevented the induction”. The ADH activity result at ADH was “unchanged”. Moreover, the “Peptide hydrolysis in IFNγ-treated cells” value in the series on proteasome [2] (cytosols of IFNγ-treated HepB5 cells exposed to 50 mM ethanol) is “suppressed”. The “Presentation of SIINFEKL-H2Kb complexes” value in the series with SIINFEKL-H2Kb complex [6] (setting [8]) is reported as “decreased”. The “Antigen presentation in IFNγ-pretreated hepatocytes” value in the series on SIINFEKL-H2Kb complex [6] (IFNγ 10 ng/ml, 50 mM ethanol) is “down-regulated”. In the series on proteasome [3] (50 mM ethanol + IFNγ 10 ng/ml), the “Effect on IFNγ induction of proteasome activity” value was “blocked this induction”. Further, the “Cht-L proteasome activity reduced by” value with proteasome [3] (ethanol 50 mM, 3 experiments) is on record as 40%. The “Induction of 20S proteasome activator PA28 expression by IFNγ” value in the series on PA28 is recorded as “prevented the induction”. For the same molecule, the “STAT1 attachment to DNA” value in the series on STAT1 [7] is given as “suppressed”.

`C=CCSCC=C` [DAS, diallyl sulfide]: in the series with HepB5 cells, the “Ach (acetaldehyde) levels” value was “suppressed”.

catalase: the SIINFEKL-H2Kb presentation restored result with SIINFEKL-H2Kb complex [1] (IFNγ-treated HepB5 cells, co-treatment with ethanol and catalase) was “up to 80%”.

With `Cc1cn[nH]c1` [4MP, 4-methylpyrazole, reference compound], the “Ethanol-elicited reduction in proteasome activity” value in the series on proteasome [5] (50 mM ethanol + 4MP 2 mM) is listed as “partially prevented”. The “Inhibitory effect of ethanol on peptide cleavage after ethanol and 4MP” value in the series on proteasome [2] (cytosols of HepB5 cells incubated with 50 mM ethanol and 4MP 2 mM) is given as “partially reversed”. Also, in the series on SIINFEKL-H2Kb complex [6] (50 mM ethanol + 4MP 2 mM), the “Ethanol-elicited reduction in SIINFEKL-H2Kb presentation” value is on record as “partially prevented”. In addition, the “Cht-L proteasome activity, cells incubated with ethanol and 4MP” value with proteasome [3] (50 mM ethanol + 4MP 2 mM) is “unaffected”. The “Suppressive effects of ethanol on SIINFEKL-H2Kb presentation” value with SIINFEKL-H2Kb complex [1] (IFNγ-treated HepB5 cells, 50 mM ethanol with 4 MP in culture medium) is recorded as “blocked”.

As to `C[C@H]1CCC/C=C/[C@@H]2C[C@H](O)C[C@H]2[C@H](O)/C=C/C(=O)O1` [brefeldin A], in the series on SIINFEKL-H2Kb complex [1] (brefeldin A 5 μg/ml), the “SIINFEKL-H2Kb presentation compared with controls” value is recorded as “suppressed”.

Source of the values: PMC2670776 (Hepatology (Baltimore, Md.), 2009).
